Laboratory results: patent US20090291910A1, “AGENT AND FOOD FOR PREVENTING/IMPROVING FUNCTIONAL DIGESTIVE DISORDER” (AJINOMOTO CO., INC, priority 2004, published 2009)

Columns and labels:
stomach emptying [1] = assay: gastric emptying rate, phenol red in 5% casein fluid diet; conditions: oral in 5% casein fluid diet, 30 min; for stomach emptying rate: FIGS. 7A, 7B, 7C
stomach emptying [2] = assay: stomach emptying, glass beads distribution in stomach and small intestine; assay type: in vivo, SD rats; conditions: 1% monosodium glutamate in 5% casein, 10 mL/kg oral; beads 1 hr later, autopsy 30 min later; N=5 vs N=4; FIG. 5
Procedure: 7-to 9-week-old male SD rats were fasted overnight and applied to the experiment. A test diet was orally administered at a volume of 10 mL/kg and, 1 hr later, about 80 glass beads having a diameter of 1 mm were orally administered. The rats were autopsied 30 min later, and the number of beads present in the stomach and small intestine was counted. The small intestine was divided into 4, and named B1-B4 from the area near the stomach.

[3] = test system: vagus nerve afferent pathway; conditions: cited from earlier work
[4] = test system: NO release in the stomach mucous membrane; assay: NO release in the stomach mucous membrane during intragastric perfusion (NO electrode); assay type: in vivo, SD rat
Procedure: SD rat was subjected to laparotomy with urethane anesthesia, a small incision was made in the anterior stomach and the small intestine, a 2 mm diameter polyethylene tube was inserted, and the perfusate was introduced and discharged with a Perista Pump. The perfusate was heated to 38° C. and the flow rate was 1 mL/min. The NO electrode was maintained under the lamina muscularis mucosae together with a temperature sensor, saline was perfused in the stomach for 2-3 hr, the released NO value was stabilized, and isotonic MSG solution (150 mM) was perfused during the time zone of 14:00-18:00.

[5] = test system: plasma 5HT and 5HIAA in portal blood; assay: leakage of serotonin and 5HIAA in the portal blood after intragastric administration; assay type: in vivo, SD rats; conditions: 450 mM MSG 2 mL oral, 0-60 min
Procedure: Male SD rats (8-week-old) were used. They were bred in a light-dark control room with a 7:00-19:00 light period. […] The catheter was filled with saline containing 10 unit/mL heparin to prevent hematological coagulation in the catheter. Saline and MSG 450 mM solution were each administered orally by 2 mL using an oral sonde. The blood was drawn every 10 min from 10 min before the administration to 60 min after the administration. To prevent unnecessary platelet activation, blood samples were collected with sufficient attention. […] To the separated plasma was rapidly added an equivalent amount of a mixture (adjusted to pH 2) of acetic acid and hydrochloric acid to eliminate protein. The serotonin (5-HT) amount and 5HIAA amount contained in the supernatant were analyzed by an electric chemical detector (ECD-100, manufactured by Accom Inc.). The analysis conditions were as follows.
Using the aforementioned analysis method, serotonin and 5HIAA of stable metabolite thereof of the same sample were quantitated. […] Each was normalized based on the value at 0 min immediately after administration as 100%. The blood collection time immediately after 2 mL intragastric administration was taken as 0 min.

N[C@@H](CCC(=O)[O-])C(=O)[O-].[Ca+2] [calcium glutamate]
stomach emptying rate (stomach emptying [1]): promote stomach emptying

N[C@@H](CCC(=O)O)C(=O)O [glutamic acid]
distribution of beads in stomach and small intestine versus control group (stomach emptying [2]): tends to contain a smaller number of beads in the stomach and a large number of beads in the small intestine

N[C@@H](CCC(=O)O)C(=O)[O-].[Na+] [monosodium glutamate]
activation of the vagus nerve afferent pathway ([3]; administration into the stomach and duodenum): activates the vagus nerve afferent pathway
activation of the vagus nerve ([3]; intravenous and intraportal administration): does not activate the vagus nerve
NO concentration in the stomach mucous membrane ([4]; MSG (2.5%) perfusion, FIG. 3): confirmed to increase
latent time of increase in released NO ([4]; isotonic MSG (2.5%) perfused in the stomach): ~15 min
cases with an increase in the released NO ([4]; isotonic MSG (2.5%, 150 mM) perfused in the stomach): 3 cases out of 20 cases
relative concentration of plasma 5HT in portal blood versus saline administration ([5]; FIG. 4A): no difference
relative concentration of plasma metabolite 5HIAA in portal blood versus saline administration ([5]; FIG. 4B): showed an increase beyond the increase by the saline administration group
stomach emptying degree with the stomach emptying rate of the control group as 100 (stomach emptying [1]; FIGS. 6A, 6B): promoted stomach emptying

arginine glutamic acid salt
comparison of stomach emptying effect with sodium salt (stomach emptying [1]; FIGS. 6A, 6B): promotes stomach emptying from lower doses as compared to sodium salt
stomach emptying degree with the stomach emptying rate of the control group as 100 (stomach emptying [1]; FIGS. 6A, 6B): promoted stomach emptying

lysine glutamic acid salt
stomach emptying rate (stomach emptying [1]): promote stomach emptying
